For orientation: IC50 means the concentration needed to halve the response being measured.

This note sets out measurements from paper PMC8304462, “Isolation, Structural Characterization and Antidiabetic Activity of New Diketopiperazine Alkaloids from Mangrove Endophytic Fungus Aspergillus sp. 16-5c” (Marine Drugs, 2021).

One test deals with T1, PTP1B (Homo sapiens, UniProt P18031).
T1 sequence (P18031 1-435): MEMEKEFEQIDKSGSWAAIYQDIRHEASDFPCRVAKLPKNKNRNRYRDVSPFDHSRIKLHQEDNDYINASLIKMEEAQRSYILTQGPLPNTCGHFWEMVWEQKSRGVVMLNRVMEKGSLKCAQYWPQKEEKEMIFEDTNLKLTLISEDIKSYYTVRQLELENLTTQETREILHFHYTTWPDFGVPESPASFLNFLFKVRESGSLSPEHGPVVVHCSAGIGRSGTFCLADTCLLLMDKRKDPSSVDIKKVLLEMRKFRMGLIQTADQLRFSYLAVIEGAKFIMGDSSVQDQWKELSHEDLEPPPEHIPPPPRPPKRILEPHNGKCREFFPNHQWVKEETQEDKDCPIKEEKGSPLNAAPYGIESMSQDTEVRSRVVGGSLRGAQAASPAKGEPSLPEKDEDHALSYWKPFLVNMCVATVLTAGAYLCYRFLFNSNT
In words: PTP1B inhibitory activity (p-NPP hydrolysis). The test is classed as biochemical. The settings on record: screening concentration 100 μg/mL. As to the method:
PTP1B inhibitory activity was determined by measuring the enzymatic hydrolysis rate of p-nitrophenyl phosphate (p-NPP) as reported in the study. This assay was performed at 37 °C with a final volume of 100 μL, using a Tris-HCl buffer (25 mM Tris-HCl, 1 mM EDTA, 1 mM DTT, pH 7.5). […] After 30 min, the reaction ended by adding 50 μL 2.5 M NaOH solution.

The target of another test is α-glucosidase. In words: α-glucosidase inhibition assay (p-NPG, 96-well microplate). Type of test: biochemical. The conditions noted are these: 37 °C, pH 6.86, substrate p-NPG. As to the method:
The α-glucosidase inhibition assay was performed in a 96-well microplate reader method as described in a previous report. The α-glucosidase assay was performed at 37 °C with a final volume of 200 μL. […] 20 μL substrate p-nitrophenyl-α-D-glucopyranoside (p-NPG) was added to each well to start the reaction. The reaction was incubated at 37 °C for 15 min and stopped by the addition of 50 μL 0.4 M Na2CO3.

For the compound `C=CC(C)(C)c1[nH]c2ccccc2c1CC1NC(=O)C2CCCN2C1=O` (stereo not drawn) [Compound 13, epi-deoxybrevianamide E], at PTP1B, the “PTP1B (Inhibition Ratio/%)” value is recorded as <10%. Also, the 50% inhibitory concentration (IC50) on α-glucosidase was found to be 480 µM.
The matching figures for `C=CC(C)(C)c1[nH]c2ccccc2c1C(O)C1NC(=O)C2CCCN2C1=O` (centres unmarked) [Compound 4, aspergiamide D]: <10% and 144 µM.
The matching figures for `O=C1NC(O)c2nc3ccccc3c(=O)n2C1Cc1ccc(O)cc1` (centres unmarked) [Compound 6, aspergiamide F]: <10% and 267 µM.
The matching figures for `O=C1N[C@@H](O)c2nc3ccccc3c(=O)n2[C@H]1Cc1ccccc1` [Compound 15, brevianamide M]: <10% and 67.8 µM.
As for `C=CC(C)(C)c1[nH]c2ccccc2c1/C=c1\[nH]c(=O)c2n(c1=O)CCC=2` [Compound 9, brevianamide K], the “PTP1B (Inhibition Ratio/%)” value on PTP1B is on record as <10%. Besides, 7.6 µM corresponded to half-maximal inhibition against α-glucosidase (IC50).
For the compound `C=CC(C)(C)c1[nH]c2ccccc2c1C=C1NC(=O)C(CCCO)NC1=O` (centres unmarked) [Compound 1, aspergiamide A], on PTP1B, the “PTP1B (Inhibition Ratio/%)” value turned out to be 29%. This compound also displayed a half-maximal inhibitory concentration (IC50) against α-glucosidase of 18.2 µM.
On to `C=CC(C)(C)c1[nH]c2ccccc2c1/C=C1\NC(=O)C2(OC)CCCN2C1=O` (centres unmarked) [Compound 8, brevianamide R], for which the “PTP1B (Inhibition Ratio/%)” value at PTP1B was <10%. The compound further displayed an IC50 against α-glucosidase of 364 µM.
On the same counts, the results for `CC(C)=CCn1cc(CC2NC(=O)C3CCCN3C2=O)c2ccccc21` [Compound 11, N-Prenyl-cyclo-L-tryptophyl-L-proline] are <10% and 37.5 µM.
On the same counts, the results for `C=CC(C)(C)c1[nH]c2ccccc2c1/C=C1\NC(=O)C2CCCN2C1=O` (centres unmarked) [Compound 10, brevianamide W] are <10% and 40.7 µM.
On the same counts, the results for `C=CC(C)(C)c1[nH]c2ccccc2c1C=C1NC(=O)C2CC(O)CN2C1=O` (centres unmarked) [Compound 3, aspergiamide C] are <10% and 83.9 µM.
Take `O=C1N[C@@H](Cc2c[nH]c3ccccc23)C(=O)N[C@H]1Cc1ccccc1` [Compound 14, cyclo-(tryptophyl-phenylalanyl)]: the “PTP1B (Inhibition Ratio/%)” value on PTP1B is reported as <10%. Further, the 50% inhibitory concentration (IC50) on α-glucosidase amounted to 353 µM.
On the same counts, the results for `O=C1N[C@@H](Cc2c[nH]c3ccccc23)C(=O)N2CCC[C@@H]12` [Compound 12, brevianamide F] are <10% and 1090 µM.
On the same counts, the results for `O=C1NC(=O)[C@H](Cc2ccccc2)n2c1nc1ccccc1c2=O` [Compound 16, brevianamide N] are <10% and 363 µM.
`C=CC(C)(C)c1[nH]c2ccccc2c1C=C1NC(=O)C(CCC(=O)O)NC1=O` (centres unmarked) [Compound 2, aspergiamide B]: the “PTP1B (Inhibition Ratio/%)” value at PTP1B was <10%. At α-glucosidase, the IC50 is 131 µM.
As to `C=CC(C)(C)c1[nH]c2ccccc2c1C(OC)C1NC(=O)C2CCCN2C1=O` (centres unmarked) [Compound 5, aspergiamide E], the “PTP1B (Inhibition Ratio/%)” value on PTP1B is listed as <10%. At α-glucosidase, this compound had an IC50 of 1090 µM.
With `C=CC(C)(C)c1[nH]c2ccccc2c1/C=C1\NC(=O)C2(O)CCCN2C1=O` (centres unmarked) [Compound 7, brevianamide Q], the “PTP1B (Inhibition Ratio/%)” value at PTP1B is <10%. This compound also had a half-maximal inhibitory concentration (IC50) on α-glucosidase of 198 µM.
